Assay results reported in patent publication US9284292B2, “Sialochimeric compounds” (THERAPICON S.R.L., priority 2009, dated 2016).
pEC50: −log10 of the molar value.

How the values were obtained:
[1] = tested on: influenza virus A/H1N1 (A/New Caledonia/20/99); experiment: organism not typed; assay type: cell-based, influenza virus type A; conditions: MDCK, 72 h, read-out: EC50 vs A/H1N1
[2] = tested on: influenza virus A/H3N2 (A/Panama/2007/99); experiment: organism not typed; assay type: cell-based, influenza virus type A; conditions: MDCK, 72 h, read-out: EC50 vs A/H3N2
[3] = tested on: influenza virus A/H1N1 (A/New Caledonia/20/1999); assay type: cell-based, influenza virus type A
[4] = tested on: influenza virus B (B/Parma/1/07); experiment: microbe, parasite or virus in culture; assay type: cell-based; conditions: study I; for pEC50: 72 h, MDCK cells, 50% plaque reduction vs control, 3 days
[5] = in vivo; cited from earlier work

| Structure (SMILES) | pEC50 [1] | pEC50 [2] | pEC50 [3] | pEC50 [4] | antiviral activity versus virus type A relative to virus type B ([4]; higher versus type A than type B) [folds] | absorbed by oral route [5] |
| --- | --- | --- | --- | --- | --- | --- |
| CCOC(=O)C1=CC(OC(CC)CC)C(NC(C)=O)C(NC2(C(=O)O)CC(O)C(NC(C)=O)C(CNC34CC5CC(CC(C5)C3)C4)O2)C1 (stereo not drawn) [THE 08/01, Amantadine-C7-Neu5Ac—C16H28N2O4] | 5.00 | 4.81 | 4.80 | 3.90 | 10 | – |
| CC(=O)N[C@H]1[C@H]([C@H](O)[C@H](O)CO)OC(C(=O)O)=C[C@@H]1N=C(N)N [zanamivir] | – | – | – | – | – | about 2% |
| CC(=O)NC1C(O)CC(NC(=N)NC2C=C(C(=O)O)OC(C(O)C(O)CO)C2NC(C)=O)(C(=O)O)OC1CNC12CC3CC(CC(C3)C1)C2 (stereo not drawn) [THE 10/01, Amantadine-C7-Neu5Ac—C12H20N4O7] | 4.93 | 4.74 | – | 4.00 | – | – |
